What was measured:
human LPA1 = molecular target: T1, human LPA1 (Homo sapiens, UniProt Q92633); assay: LPA1 calcium flux assay (HLPA1 Ca Flux); format: cell-based; details: Human LPA1 expressing CHO cells, stimulated with 10 nM LPA
T1 construct: the full-length cDNA for human LPA1 was obtained by PCR of the reverse transcription reaction; expressed in transfected cells
Procedure, shortened: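 Compounds were fitted for IC50 from inhibition of the intracellular calcium rise evoked by 10 nM LPA. Test system: dye-loaded CHO cells stably transfected with human LPA1, serum-free overnight, with 30 min compound pretreatment at room temperature before stimulation.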

human LPA3 = molecular target: T2, human LPA3 (Homo sapiens, UniProt Q9UBY5); assay: LPA3 calcium flux assay; format: cell-based; details: Human LPA3 expressing CHO cells, stimulated with 10 nM LPA; read-out: HLPA3 Ca Flux IC50
T2 construct: The full-length cDNA fragment for human LPA3 was obtained by PCR from the vector; expressed in transfected cells; cDNA from the Missouri S&T cDNA Resource Center
T2 sequence (Q9UBY5 1-353): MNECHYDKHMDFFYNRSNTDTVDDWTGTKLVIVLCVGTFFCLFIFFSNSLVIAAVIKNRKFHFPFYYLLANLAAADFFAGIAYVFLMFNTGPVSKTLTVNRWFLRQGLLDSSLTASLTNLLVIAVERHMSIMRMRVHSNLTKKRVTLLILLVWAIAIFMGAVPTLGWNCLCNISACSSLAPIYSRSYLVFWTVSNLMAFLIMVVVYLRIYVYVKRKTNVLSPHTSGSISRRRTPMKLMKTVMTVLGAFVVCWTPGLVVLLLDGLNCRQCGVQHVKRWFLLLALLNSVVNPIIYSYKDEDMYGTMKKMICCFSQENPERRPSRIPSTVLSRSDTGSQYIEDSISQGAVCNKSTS
Experimental: A vector containing the human LPA3 receptor cDNA was obtained from the Missouri S&T cDNA Resource Center (www.cdna.org). The full-length cDNA fragment for human LPA3 was obtained by PCR from the vector. The nucleotide sequence of the cloned human LPA3 was determined by sequencing and confirmed to be identical to the published human LPA3 sequence (NCBI accession number NM 012152). The cDNA was cloned into the pcDNA5/FRT expression plasmid and transfected in CHO cells using lipofectamine 2000 (Invitrogen Corp., USA). Clones stably expressing human LPA3 were selected using hygromycin and identified as cells that show Ca-influx in response to LPA.
Human LPA1 or LPA3 expressing CHO cells are seeded at 20,000-45,000 cells per well in a 96-well poly-D-lysine coated plate one or two days before the assay. Prior to the assay, the cells are washed once with PBS and then cultured in serum-free media overnight. On the day of the assay, a calcium indicator dye (Calcium 4, Molecular Devices) in assay buffer (HBSS with Ca^2+ and Mg^2+ and containing 20 mM Hepes and 0.3% fatty-acid free human serum albumin) is added to each well and incubation continued for 1 hour at 37° C. 10 μl of test compounds in 2.5% DMSO are added to the cells and incubation continued at room temperature for 30 minutes. Cells are the stimulated by the addition of 10 nM LPA and intracellular Ca^2+ measured using the Flexstation 3 (Molecular Devices). IC50s are determined using Graphpad prism analysis of drug titration curves.

T1 sequence (Q92633 whole entry): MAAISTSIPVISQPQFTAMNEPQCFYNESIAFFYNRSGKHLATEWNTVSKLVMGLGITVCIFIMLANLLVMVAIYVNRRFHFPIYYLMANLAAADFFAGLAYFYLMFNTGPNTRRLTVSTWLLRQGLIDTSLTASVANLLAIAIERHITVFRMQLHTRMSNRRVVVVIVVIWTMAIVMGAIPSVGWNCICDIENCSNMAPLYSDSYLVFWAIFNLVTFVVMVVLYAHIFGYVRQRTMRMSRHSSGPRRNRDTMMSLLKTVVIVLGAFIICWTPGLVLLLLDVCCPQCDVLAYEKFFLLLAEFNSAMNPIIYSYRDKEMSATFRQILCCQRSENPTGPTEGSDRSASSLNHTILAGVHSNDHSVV

Compound	IC50 (human LPA1) [µM]	IC50 (human LPA3) [µM]
Cc1noc(-c2ccc(-c3ccc(CC(=O)O)cc3)cc2)c1NC(=O)O[C@H](C)c1ccccc1F [Compound 1-78, (4′-{4-[(R)-1-(2-Fluoro-phenyl)-ethoxycarbonylamino]-3-methyl-isoxazol-5-yl}-biphenyl-4-yl)-acetic acid]	< 0.3	1 to 50
Cc1noc(-c2ccc(COc3ccccc3CC(=O)O)cc2)c1NC(=O)OC(C)c1ccccc1Cl (stereo not drawn) [Compound 1-79, [2-(4-{4-[1-(2-Chloro-phenyl)-ethoxycarbonylamino]-3-methyl-isoxazol-5-yl}-benzyloxy)-phenyl]-acetic acid]	< 0.3	1 to 50
Cc1noc(-c2ccc(Cc3cccc(CC(=O)O)c3)cc2)c1NC(=O)O[C@H](C)c1ccccc1F [Compound 1-80, [3-(4-{4-[(R)-1-(2-Fluoro-phenyl)-ethoxycarbonylamino]-3-methyl-isoxazol-5-yl}-benzyl)-phenyl]acetic acid]	< 0.3	1 to 50
Cc1noc(-c2ccc(Cc3ccc(CC(=O)O)cc3)cc2)c1NC(=O)O[C@H](C)c1ccccc1F [Compound 1-81, [4-(4-{4-[(R)-1-(2-Fluoro-phenyl)-ethoxycarbonylamino]-3-methyl-isoxazol-5-yl}-benzyl)-phenyl]-acetic acid]	< 0.3	1 to 50
Cc1noc(-c2ccc(Oc3ccc(CC(=O)O)cc3)cc2)c1NC(=O)O[C@H](C)c1ccccc1F [Compound 1-84, [4-(4-{4-[(R)-1-(2-Fluoro-phenyl)-ethoxycarbonylamino]-3-methyl-isoxazol-5-yl}-phenoxy)-phenyl]-acetic acid]	< 0.3	1 to 50
Cc1cc(-c2onc(C)c2NC(=O)O[C@H](C)c2ccccc2F)ccc1-c1ccc(CC(=O)O)cc1 [Compound 1-85, (4′-{4-[(R)-1-(2-Fluoro-phenyl)-ethoxycarbonylamino]-3-methyl-isoxazol-5-yl}-2′-methyl-biphenyl-4-yl)-acetic acid]	< 0.3	1 to 50
Cc1noc(-c2ccc(-c3ccc(C(C)(C)C(=O)O)cc3)cc2)c1NC(=O)OC(C)c1ccccc1F (stereo not drawn) [Compound 1-86, 2-(4′-{4-[1-(2-Fluoro-phenyl)-ethoxycarbonylamino]-3-methyl-isoxazol-5-yl}-biphenyl-4-yl)-2-methyl-propionic acid]	< 0.3	1 to 50
Cc1noc(-c2ccc(-c3ccc(C(C)(C)C(=O)O)cn3)cc2)c1NC(=O)OC(C)c1ccccc1F (stereo not drawn) [Compound 1-87, 2-[6-(4-{4-[1-(2-Fluoro-phenyl)-ethoxycarbonylamino]-3-methyl-isoxazol-5-yl}-phenyl)-pyridin-3-yl]-2-methyl-propionic acid]	< 0.3	1 to 50
Cc1noc(-c2ccc(-c3ccc(C(C)(C)C(=O)O)cc3)cc2)c1NC(=O)O[C@H](C)c1ccccc1Cl [Compound 1-89, 2-(4′-{4-[(R)-1-(2-Chloro-phenyl)-ethoxycarbonylamino]-3-methyl-isoxazol-5-yl}-biphenyl-4-yl)-2-methyl-propionic acid]	< 0.3	0.3 to 1
Cc1noc(-c2ccc(-c3ccc(C(C)(C)C(=O)O)cc3)cc2)c1NC(=O)O[C@H](C)c1ccccc1F [Compound 1-90, 2-(4′-{4-[(R)-1-(2-Fluoro-phenyl)-ethoxycarbonylamino]-3-methyl-isoxazol-5-yl}-biphenyl-4-yl)-2-methyl-propionic acid]	< 0.3	1 to 50
Cc1noc(-c2ccc(-c3ccc(C(C)C(=O)O)cc3)cc2)c1NC(=O)O[C@H](C)c1ccccc1F (stereo partly drawn) [Compound 1-91, 2-(4′-{4-[(R)-1-(2-Fluoro-phenyl)-ethoxycarbonylamino]-3-methyl-isoxazol-5-yl}-biphenyl-4-yl)-propionic acid]	< 0.3	1 to 50
Cc1noc(-c2ccc(-c3ccc(C(C)C(=O)O)cc3)cc2)c1NC(=O)O[C@H](C)c1ccccc1Cl (stereo partly drawn) [Compound 1-92, 2-(4′-{4-[(R)-1-(2-Chloro-phenyl)-ethoxycarbonylamino]-3-methyl-isoxazol-5-yl}-biphenyl-4-yl)-propionic acid]	< 0.3	0.3 to 1
Cc1noc(-c2ccc(-c3nc(C(=O)O)cs3)cc2)c1NC(=O)OC(C)c1ccccc1Cl (stereo not drawn) [Compound 1-93, 2-(4-{4-[1-(2-Chloro-phenyl)-ethoxycarbonylamino]-3-methyl-isoxazol-5-yl}-phenyl)-thiazole-4-carboxylic acid]	< 0.3	1 to 50
Cc1noc(-c2ccc(-c3ncc(C(=O)O)s3)cc2)c1NC(=O)OC(C)c1ccccc1Cl (stereo not drawn) [Compound 1-94, 2-(4-{4-[1-(2-Chloro-phenyl)-ethoxycarbonylamino]-3-methyl-isoxazol-5-yl}-phenyl)-thiazole-5-carboxylic acid]	< 0.3	1 to 50
COC(=O)Cc1cccc(Oc2ccc(-c3onc(C)c3NC(=O)O[C@H](C)c3ccccc3F)cc2)c1 [Compound 1-95, [3-(4-{4-[1-(2-Fluoro-phenyl)-ethoxycarbonylamino]-3-methyl-isoxazol-5-yl}-phenoxy)-phenyl]acetic acid methyl ester]	< 0.3	1 to 50

Continued, values first:

IC50 (human LPA1) [µM]	IC50 (human LPA3) [µM]	Compound
< 0.3	1 to 50	Cc1noc(-c2ccc(Oc3cccc(CC(=O)O)c3)cc2)c1NC(=O)O[C@H](C)c1ccccc1F [Compound 1-96, [3-(4-{4-[1-(2-Fluoro-phenyl)-ethoxycarbonylamino]-3-methyl-isoxazol-5-yl}-phenoxy)-phenyl]-acetic acid]
< 0.3	1 to 50	Cc1noc(-c2ccc(CS(=O)(=O)c3ccc(CC(=O)O)cc3)cc2)c1NC(=O)OC(C)c1ccccc1Cl (stereo not drawn) [Compound 1-97, [4-(4-{4-[1-(2-Chloro-phenyl)-ethoxycarbonylamino]-3-methyl-isoxazol-5-yl}-phenylmethanesulfonyl)-phenyl]-acetic acid]
< 0.3	> 50	Cc1noc(-c2ccc(CS(=O)(=O)c3cccc(CC(=O)O)c3)cc2)c1NC(=O)OC(C)c1ccccc1Cl (stereo not drawn) [Compound 1-98, [3-(4-{4-[1-(2-Chloro-phenyl)-ethoxycarbonylamino]-3-methyl-isoxazol-5-yl}-phenylmethanesulfonyl)-phenyl]acetic acid]
< 0.3	1 to 50	Cc1noc(-c2ccc(CS(=O)(=O)c3ccccc3CC(=O)O)cc2)c1NC(=O)OC(C)c1ccccc1Cl (stereo not drawn) [Compound 1-99, [2-(4-{4-[1-(2-Chloro-phenyl)-ethoxycarbonylamino]-3-methyl-isoxazol-5-yl}-phenylmethanesulfonyl)-phenyl]-acetic acid]
< 0.3	1 to 50	Cc1noc(-c2ccc(COc3ccc(CC(=O)O)cc3)cc2)c1NC(=O)OC(C)c1ccccc1Cl (stereo not drawn) [Compound 1-100, [4-(4-{4-[1-(2-Chloro-phenyl)-ethoxycarbonylamino]-3-methyl-isoxazol-5-yl}-benzyloxy)-phenyl]-acetic acid]
< 0.3	1 to 50	COC(=O)Cc1ccc(OCc2ccc(-c3onc(C)c3NC(=O)O[C@H](C)c3ccccc3Cl)cc2)cc1 [Compound 1-102, [4-(4-{4-[(R)-1-(2-Chloro-phenyl)-ethoxycarbonylamino]-3-methyl-isoxazol-5-yl}-benzyloxy)-phenyl]-acetic acid methyl ester]
< 0.3	1 to 50	Cc1noc(-c2ccc(COc3ccc(CC(=O)O)cc3)cc2)c1NC(=O)O[C@H](C)c1ccccc1Cl [Compound 1-103, [4-(4-{4-[(R)-1-(2-Chloro-phenyl)-ethoxycarbonylamino]-3-methyl-isoxazol-5-yl}-benzyloxy)-phenyl]-acetic acid]
< 0.3	1 to 50	Cc1noc(-c2ccc(Sc3ccc(CC(=O)O)cc3)cc2)c1NC(=O)O[C@H](C)c1ccccc1F [Compound 1-109, [4-(4-{4-[(R)-1-(2-Fluoro-phenyl)-ethoxycarbonylamino]-3-methyl-isoxazol-5-yl}-phenylsulfanyl)-phenyl]-acetic acid]
< 0.3	1 to 50	Cc1noc(-c2ccc(-c3ccc(CC(=O)O)cc3)cc2)c1NC(=O)O[C@@H](C)c1ccccc1F [Compound 1-111, (4′-{4-[(S)-1-(2-Fluoro-phenyl)-ethoxycarbonylamino]-3-methyl-isoxazol-5-yl}-biphenyl-4-yl)-acetic acid]

— US20110301142A1, “ANTAGONISTS OF LYSOPHOSPHATIDIC ACID RECEPTORS” (priority 2008, published 2011)
